Results taken from the supplement of paper PMC10307832.

Key:
Experiment in all cases: relative viability (nuclei count vs DMSO), 5 days (fraction); higher = more cells survive
Idelalisib + Decitabine = compound: CC[C@H](Nc1ncnc2[nH]cnc12)c1nc2cccc(F)c2c(=O)n1-c1ccccc1 [Idelalisib] + Nc1ncn([C@H]2C[C@H](O)[C@@H](CO)O2)c(=O)n1 [Decitabine] (partner 2 µM)
Procedure, shortened: (§1)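 One day after seeding in 1536-well plates, lung cancer cell lines were dosed by pin tool. Dosing was either single-drug or a fixed anchor-drug dose plus five library-drug doses (not always all listed) in √10 steps. After 5 days, nuclei were stained in one fix-and-stain step and counted on 4× images, and relative viability is the nuclei count of treated wells over that of vehicle wells, given as the median of duplicate plates.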

Idelalisib + AZD7762 = compound: CC[C@H](Nc1ncnc2[nH]cnc12)c1nc2cccc(F)c2c(=O)n1-c1ccccc1 [Idelalisib] + NC(=O)Nc1cc(-c2cccc(F)c2)sc1C(=O)N[C@H]1CCCNC1 [AZD7762] (partner 0.2 µM)
Procedure, shortened: as §1

Idelalisib + Lapatinib = compound: CC[C@H](Nc1ncnc2[nH]cnc12)c1nc2cccc(F)c2c(=O)n1-c1ccccc1 [Idelalisib] + CS(=O)(=O)CCNCc1ccc(-c2ccc3ncnc(Nc4ccc(OCc5cccc(F)c5)c(Cl)c4)c3c2)o1 [Lapatinib] (partner 2 µM)
Procedure, shortened: as §1

Pemetrexed + Navitoclax = compound: Nc1nc2[nH]cc(CCc3ccc(C(=O)N[C@@H](CCC(=O)O)C(=O)O)cc3)c2c(=O)[nH]1 [Pemetrexed] + CC1(C)CCC(c2ccc(Cl)cc2)=C(CN2CCN(c3ccc(C(=O)NS(=O)(=O)c4ccc(N[C@H](CCN5CCOCC5)CSc5ccccc5)c(S(=O)(=O)C(F)(F)F)c4)cc3)CC2)C1 [Navitoclax] (partner 0.5 µM)
Procedure, shortened: as §1

| Cell Line | relative viability (Idelalisib + Decitabine; first compound 0.04 µM) | relative viability (Idelalisib + Decitabine; first compound 0.1265 µM) | relative viability (Idelalisib + Decitabine; first compound 0.4 µM) | relative viability (Idelalisib + Decitabine; first compound 1.265 µM) | relative viability (Idelalisib + Decitabine; first compound 4 µM) | relative viability (Idelalisib + AZD7762; first compound 0.04 µM) | relative viability (Idelalisib + AZD7762; first compound 0.1265 µM) | relative viability (Idelalisib + AZD7762; first compound 0.4 µM) | relative viability (Idelalisib + AZD7762; first compound 1.265 µM) | relative viability (Idelalisib + AZD7762; first compound 4 µM) | relative viability (Idelalisib + Lapatinib; first compound 0.04 µM) | relative viability (Idelalisib + Lapatinib; first compound 0.1265 µM) | relative viability (Idelalisib + Lapatinib; first compound 0.4 µM) | relative viability (Idelalisib + Lapatinib; first compound 1.265 µM) | relative viability (Idelalisib + Lapatinib; first compound 4 µM) | relative viability (Pemetrexed + Navitoclax; first compound 0.002 µM) | relative viability (Pemetrexed + Navitoclax; first compound 0.006325 µM) | relative viability (Pemetrexed + Navitoclax; first compound 0.02 µM) | relative viability (Pemetrexed + Navitoclax; first compound 0.06325 µM) | relative viability (Pemetrexed + Navitoclax; first compound 0.2 µM) |
| --- | --- | --- | --- | --- | --- | --- | --- | --- | --- | --- | --- | --- | --- | --- | --- | --- | --- | --- | --- | --- |
| NCI-H1944 | 0.468 | 0.452 | 0.433 | 0.431 | 0.429 | 0.554 | 0.501 | 0.457 | 0.2 | 0.61 | 0.969 | 0.857 | 0.637 | 0.826 | 0.668 | 0.945 | 1.01 | 1.03 | 1.08 | 1.01 |
| NCI-H23 | 0.331 | 0.339 | 0.309 | 0.313 | 0.329 | 0.265 | 0.218 | 0.247 | 0.195 | 0.235 | 1.04 | 1.06 | 0.872 | 1.08 | 0.893 | 0.808 | 0.756 | 1.07 | 0.788 | 0.858 |
| HCC-366 | 0.348 | 0.395 | 0.309 | 0.372 | 0.299 | 0.248 | 0.317 | 0.242 | 0.106 | 0.249 | 1.01 | 1.02 | 0.999 | 1.03 | 0.987 | 1.07 | 0.95 | 0.974 | 1.02 | 0.963 |
| LCLC-97TM1 | 0.254 | 0.223 | 0.269 | 0.262 | 0.226 | 0.199 | 0.382 | 0.274 | 0.107 | 0.339 | 0.913 | 1.28 | – | 1.08 | 0.602 | 0.393 | 0.279 | 0.674 | 0.375 | 0.394 |
